Reference: ChEMBL document CHEMBL5316325, “Design and Synthesis of 3-Hydroxy-pyridin-4(1H)-ones-Ciprofloxacin Conjugates as Dual Antibacterial and Antibiofilm Agents against Pseudomonas aeruginosa” (J Med Chem, 2023)
≈ marks a conversion by molar mass, not a printed value. Calls of active or inactive are those of the source. The rule behind the calls is not given here.

How the values were obtained:
[1] = system: Pseudomonas aeruginosa; test: Antibacterial activity against Pseudomonas aeruginosa 1129 in MHB medium assessed as bacterial growth inhibition by CLSI based broth microdilution method; type: functional
[2] = system: Pseudomonas aeruginosa; test: Antibacterial activity against Pseudomonas aeruginosa PAO1 in MHB medium assessed as bacterial growth inhibition by CLSI based broth microdilution method; type: functional
[3] = system: Escherichia coli; test: Antibacterial activity against Escherichia coli ATCC 25922 in MHB medium assessed as bacterial growth inhibition by CLSI based broth microdilution method; type: functional
[4] = system: Pseudomonas aeruginosa; test: Antibacterial activity against Pseudomonas aeruginosa PAO1 in ABTGC medium assessed as bacterial growth inhibition; type: functional
[5] = system: Pseudomonas aeruginosa; test: Antibacterial activity against Pseudomonas aeruginosa FB in MHB medium assessed as bacterial growth inhibition by CLSI based broth microdilution method; type: functional
[6] = system: Pseudomonas aeruginosa; test: Antibacterial activity against Pseudomonas aeruginosa ATCC 27853 in MHB medium assessed as bacterial growth inhibition by CLSI based broth microdilution method; type: functional
[7] = system: Pseudomonas aeruginosa; test: Antibacterial activity against Pseudomonas aeruginosa 1167 in MHB medium assessed as bacterial growth inhibition by CLSI based broth microdilution method; type: functional
[8] = system: Pseudomonas aeruginosa; test: Antibiofilm activity against Pseudomonas aeruginosa PAO1 in ABTGC medium assessed as biofilm biomass at 1/4 times MIC incubated for 24 hrs by crystal violet staining based assay relative to control; type: functional
[9] = system: Staphylococcus aureus; test: Antibacterial activity against Staphylococcus aureus ATCC 25923 in MHB medium assessed as bacterial growth inhibition by CLSI based broth microdilution method; type: functional
[10] = system: Klebsiella pneumoniae; test: Antibacterial activity against Klebsiella pneumoniae ATCC 700603 in MHB medium assessed as bacterial growth inhibition by CLSI based broth microdilution method; type: functional
[11] = system: Staphylococcus aureus; test: Antibacterial activity against methicillin-resistant Staphylococcus aureus ATCC 515992 in MHB medium assessed as bacterial growth inhibition by CLSI based broth microdilution method; type: functional
[12] = system: Pseudomonas aeruginosa; test: Antibiofilm activity against Pseudomonas aeruginosa PAO1 in ABTGC medium assessed as biofilm biomass at 1/2 times MIC incubated for 24 hrs by crystal violet staining based assay relative to control; type: functional
[13] = system: Pseudomonas aeruginosa; test: Antibacterial activity against Pseudomonas aeruginosa 1121 in MHB medium assessed as bacterial growth inhibition by CLSI based broth microdilution method; type: functional
[14] = system: Pseudomonas aeruginosa; test: Antibiofilm activity against Pseudomonas aeruginosa PAO1 in ABTGC medium assessed as biofilm biomass at MIC incubated for 24 hrs by crystal violet staining based assay relative to control; type: functional
[15] = system: Pseudomonas aeruginosa; test: Antibiofilm activity against Pseudomonas aeruginosa PAO1 assessed as inhibition of bacterial motility at 15 uM incubated for 16 hrs relative to control; type: functional, organism-based
[16] = system: Pseudomonas aeruginosa; test: Antibiofilm activity against Pseudomonas aeruginosa PAO1 assessed as decrease in pyocyanin level at 15 uM by absorbance based assay; type: functional, organism-based
[17] = system: Pseudomonas aeruginosa; test: Antibiofilm activity against Pseudomonas aeruginosa PAO1 assessed as decrease in rhamnolipid level at 15 uM by absorbance based assay; type: functional, organism-based
[18] = system: Pseudomonas aeruginosa; test: Antibacterial activity against Pseudomonas aeruginosa assessed as inhibition of virulence release at 4 ug/ml; type: functional, organism-based; details: dose 4.0 µg/ml

Row | Structure (SMILES) | MIC [1] | MIC [2] | MIC [3] | MIC [4] | MIC [5] | MIC [6] | MIC [7] | Activity [8] | MIC [9] | MIC [10] | MIC [11] | Activity [12] | MIC [13] | Activity [14] | inhibition [15] | Activity [16] | Activity [17] | inhibition [18]
1 | Cc1cc(=O)c(O)c(CNC(=O)CCCCCCC(=O)N2CCN(c3cc4c(cc3F)c(=O)c(C(=O)O)cn4C3CC3)CC2)n1C | > 200 µM | > 200 µM | 6.27 µM (≈ 4 µg/mL) | 128 µM (≈ 81.6 µg/mL) | > 200 µM | > 200 µM | > 200 µM | 141.1% | 50.2 µM (≈ 32 µg/mL) | > 200 µM | > 200 µM | 114.9% | > 200 µM | 99.9% |  |  |  | 
2 | Cc1cc(=O)c(O)cn1CCCNC(=O)CCC(=O)N1CCN(c2cc3c(cc2F)c(=O)c(C(=O)O)cn3C2CC2)CC1 | 6.36 µM (≈ 3.79 µg/mL) | 3.36 µM (≈ 2 µg/mL) | 0.42 µM (≈ 0.25 µg/mL) | 53.7 µM (≈ 32 µg/mL) | 3.36 µM (≈ 2 µg/mL) | 6.72 µM (≈ 4 µg/mL) | 3.36 µM (≈ 2 µg/mL) | 116.3% | 6.72 µM (≈ 4 µg/mL) | 13.4 µM (≈ 8 µg/mL) | > 200 µM | 78.2% | 6.72 µM (≈ 4 µg/mL) | 92.1% |  |  |  | 
3 | O=C(CCC(=O)N1CCN(c2cc3c(cc2F)c(=O)c(C(=O)O)cn3C2CC2)CC1)NCc1ccccc1 | > 200 µM | > 200 µM | 15.4 µM (≈ 8 µg/mL) | > 200 µM | > 200 µM | > 200 µM | > 200 µM | 102.4% | 30.7 µM (≈ 16 µg/mL) | > 200 µM | > 200 µM | 97.3% | > 200 µM | 218.8% | inactive | inactive | inactive | 
4 | Cn1cc(O)c(=O)cc1CNC(=O)CCCCC(=O)N1CCN(c2cc3c(cc2F)c(=O)c(C(=O)O)cn3C2CC2)CC1 | 6.72 µM (≈ 4 µg/mL) | 0.84 µM (≈ 0.5 µg/mL) | 0.1 µM (≈ 0.0596 µg/mL) | 6.72 µM (≈ 4 µg/mL) | 3.36 µM (≈ 2 µg/mL) | 3.36 µM (≈ 2 µg/mL) | 1.68 µM (≈ 1 µg/mL) | 24.9% | 13.4 µM (≈ 8 µg/mL) | 6.72 µM (≈ 4 µg/mL) | > 200 µM | 110.3% | 1.68 µM (≈ 1 µg/mL) | 86.4% |  |  |  | 
5 | Cc1cc(=O)c(O)c(CNC(=O)CCC(CCC(=O)NCc2c(O)c(=O)cc(C)n2C)(CCC(=O)NCc2c(O)c(=O)cc(C)n2C)NC(=O)CCCC(=O)N2CCN(c3cc4c(cc3F)c(=O)c(C(=O)O)cn4C3CC3)CC2)n1C | 7.11 µM (≈ 8 µg/mL) | 1.78 µM (≈ 2 µg/mL) | 0.22 µM (≈ 0.248 µg/mL) | 14.2 µM (≈ 16 µg/mL) | 3.55 µM (≈ 3.99 µg/mL) | 7.11 µM (≈ 8 µg/mL) | 1.78 µM (≈ 2 µg/mL) | 26.1% | 14.2 µM (≈ 16 µg/mL) | 14.2 µM (≈ 16 µg/mL) | > 200 µM | 79.3% | 3.55 µM (≈ 3.99 µg/mL) | 12.7% |  |  |  | 
6 | Cc1cc(=O)c(O)c(CNC(=O)CCC(N)(CCC(=O)NCc2c(O)c(=O)cc(C)n2C)CCC(=O)NCc2c(O)c(=O)cc(C)n2C)n1C | > 200 µM | > 200 µM | > 200 µM | > 200 µM | > 200 µM | > 200 µM | > 200 µM | 99.8% | > 200 µM | > 200 µM | > 200 µM | 346.5% | > 200 µM | 315.1% |  |  |  | inactive
7 | Cc1cc(=O)c(O)c(CNC(=O)CCC(CCC(=O)NCc2c(O)c(=O)cc(C)n2C)(CCC(=O)NCc2c(O)c(=O)cc(C)n2C)NC(=O)CCC(=O)N2CCN(c3cc4c(cc3F)c(=O)c(C(=O)O)cn4C3CC3)CC2)n1C | 57.6 µM (≈ 64 µg/mL) | 14.4 µM (≈ 16 µg/mL) | 0.22 µM (≈ 0.244 µg/mL) | 115 µM (≈ 128 µg/mL) | 28.8 µM (≈ 32 µg/mL) | 7.2 µM (≈ 8 µg/mL) | 14.4 µM (≈ 16 µg/mL) | 211.1% | 14.4 µM (≈ 16 µg/mL) | 14.4 µM (≈ 16 µg/mL) | > 200 µM | 20.9% | 28.8 µM (≈ 32 µg/mL) | 20.7% |  |  |  | 
8 | Cc1cc(=O)c(O)c(CNC(=O)CCCC(=O)N2CCN(c3cc4c(cc3F)c(=O)c(C(=O)O)cn4C3CC3)CC2)n1C | 13.4 µM (≈ 8 µg/mL) | 6.72 µM (≈ 4 µg/mL) | 0.21 µM (≈ 0.125 µg/mL) | 128 µM (≈ 76.2 µg/mL) | 13.4 µM (≈ 8 µg/mL) | 0.86 µM (≈ 0.512 µg/mL) | 6.72 µM (≈ 4 µg/mL) | 84.1% | 53.7 µM (≈ 32 µg/mL) | 26.9 µM (≈ 16 µg/mL) | > 200 µM | 116.8% | 6.72 µM (≈ 4 µg/mL) | 39.5% |  |  |  | 
